# Measured values taken from PMC5892457, “Characterisation of novel biomass degradation enzymes from the genome of Cellulomonas fimi” (Enzyme and Microbial Technology, 2018).
# Biological target: T1, AfsA (Cellulomonas fimi, UniProt F4H166)
# T1 construct: gene Celf_3321; full ORF as BioBrick, E. coli JM109 crude lysate, untagged
# T1 sequence (F4H166 1-506): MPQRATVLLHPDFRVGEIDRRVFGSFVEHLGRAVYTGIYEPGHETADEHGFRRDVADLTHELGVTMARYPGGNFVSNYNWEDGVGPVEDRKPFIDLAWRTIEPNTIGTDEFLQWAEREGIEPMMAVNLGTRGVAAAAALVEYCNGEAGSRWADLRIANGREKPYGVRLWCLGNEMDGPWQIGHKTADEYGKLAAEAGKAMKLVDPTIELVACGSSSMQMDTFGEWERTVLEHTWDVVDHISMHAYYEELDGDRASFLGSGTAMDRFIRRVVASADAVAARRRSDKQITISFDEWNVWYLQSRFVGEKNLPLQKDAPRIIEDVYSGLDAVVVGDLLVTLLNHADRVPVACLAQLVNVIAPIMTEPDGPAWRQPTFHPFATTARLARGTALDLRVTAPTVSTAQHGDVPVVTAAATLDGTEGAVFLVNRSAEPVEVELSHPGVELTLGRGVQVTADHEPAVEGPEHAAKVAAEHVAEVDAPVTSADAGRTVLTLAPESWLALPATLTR
# Assay: nitrophenol release at […] nm
# Assay type: biochemical
# Conditions: pH 5.0, 37 °C, E. coli lysate
row,Structure (SMILES),nitrophenol release at 405 nm
1,"O=[N+]([O-])c1ccccc1O[C@@H]1OC[C@@H](O)[C@H](O)[C@H]1O [ONPX, 2-nitrophenyl β-D-xylopyranoside]",AfsA at this temperature and pH being more active with ONPX than PNPA
2,"O=[N+]([O-])c1ccc(O[C@@H]2O[C@@H](CO)[C@H](O)[C@H]2O)cc1 [PNPA, 4-nitrophenyl α-L-arabinofuranoside]",AfsA and AfsB have both arabinofuranoisdase and xylosidase activities
